Test results taken from patent US20250144049A1, “METHODS, COMPOSITIONS, AND USES RELATED TO THE TREATMENT AND PREVENTION OF LEIGH SYNDROME” (Stealth BioTherapeutics Inc., priority 2023, published 2025).

Experiments:
[1] = tested on: rotenone-inhibited Complex I; experiment: Complex I-bypass assay (high-resolution respirometry, O2 consumption); format: cell-based, human
Protocol: All high-resolution respirometry experiments were conducted using the Oroboros O2k-Fluorespirometer (Oroboros, Innsbruck, Austria). The Oroboros O2k-Fluorespirometer was calibrated daily using the air calibration protocol on DatLab 7.4 (Oroboros, Innsbruck, Austria). Prior to each experiment requiring the fluorescence module, the AmpR calibration protocol from DatLab 7.4 was used to calibrate the fluorescence signal. Initial data analysis, including setting of marks, was performed using DatLab 7.4.
Complex I-bypass activity was assessed using HRR to measure O2 consumption. […] Values were exported and analyzed using GraphPad Prism 9. […]
Statistical analysis was performed using GraphPad Prism 9. […] RET Assay data were analyzed by 2-way ANOVA using a p-value of 0.05.
Using this assay, the ability of Compounds 1 to 4 and Vatiquinone to bypass rotenone-inhibited Complex I was determined. […] The ability of Compounds 1 to 4 and Vatiquinone to “bypass” Complex I and restore OXPHOS is measured by an increase in oxygen consumption rate following addition of the compound to the chamber.
In executing this assay, in each instance, fibroblasts are added to each chamber of the Oroboros Oxygraph-2K (the “O2k”). […] The addition of rotenone is expected to cause a marked reduction of OXPHOS as measured by a decreased rate of oxygen consumption. […]

[2] = tested on: Healthy (GM08402) fibroblasts; experiment: RSL3 cytoprotection assay, healthy fibroblasts; format: cell-based, human
Protocol: (§1) Patient fibroblasts were acquired from Coriell Institute for Medical Research (Camden, NJ, USA). GM03672 is an untransformed fibroblast cell line from a Leigh syndrome patient carrying an unknown mutation. GM08402 is an untransformed fibroblast from an apparently healthy individual. Cells were cultured at 37° C. at 5% CO2 in Eagle's Minimum Essential Medium (MEM, Corning), which was supplemented with Earle's salts and non-essential amino acids, 15% qualified fetal bovine serum, and 1% penicillin/streptomycin ([…]) to yield “Complete MEM.”
(§2) To initiate the RSL3 cytoprotection experiment, Healthy (GM08402) and Leigh syndrome (GM03672) fibroblasts were resuspended in Complete MEM. Cells were seeded at 10,000 cells per well in a clear, tissue cultured-treated, 96-well plate and incubated at 37° C. overnight. Following the incubation, supernatant was manually aspirated, taking care not to disrupt cells. […]. Luminescence units were quantified by GEN5 software on a BioTek SYNERGY neo2 plate reader (LUM filter).
(§3) RSL3 is an inhibitor of the enzyme glutathione peroxidase 4 (GPX4), which decreases lipid peroxides. RSL3 inhibition of GPX4 induces ferroptosis through iron-dependent accumulation of lipid ROS. In this assay, Healthy or Leigh fibroblasts were treated for 4 hours with RSL3 to induce ferroptosis or left untreated. Endogenous ATP levels were measured as an indicator of cellular viability using a commercially available kit (CellTiter-Glo® 2.0 Cell Viability Assay (Promega)).
(§4) […]. […] Briefly, ferroptosis was induced with 1 μM RSL3 in healthy fibroblast cells and 375 nM RSL3 in fibroblasts from a patient with Leigh syndrome.
(§5) A preliminary experiment was performed to determine the effect of RSL3 injury on the fibroblasts of a healthy individual (cell line: GM08402) and the fibroblasts of a patient diagnosed with Leigh syndrome (cell line: GM03672).

[3] = tested on: 15-lipoxygenase (15-LO); experiment: 15(S)-HETE ELISA following RSL3 treatment, Leigh fibroblasts; format: cell-based, human; settings: 700 nM RSL3, 1 μM compound, FIG. 11
Protocol: (§6) Samples for the 15(S)-HETE ELISA were generated by the RSL3 cytoprotection assay described above. Healthy or Leigh fibroblasts were resuspended in assay medium, seeded at 200,000 cells per well in a clear, tissue culture-treated, 24-well plate. Cells were incubated at 37° C. for 24 hours. Supernatant was aspirated from each well following the incubation.
(§7) Fibroblasts from both a healthy individual and a patient diagnosed with Leigh syndrome were examined (but not all compounds were examined in each cell type). Activation of ferroptosis has been implicated as a driver of epilepsy, which is commonly associated with Leigh syndrome. […] Kahn-Kirby et al. PLOS One. […] As a key regulator of ferroptosis, 15-LO serves as a rational therapeutic target in Leigh syndrome.

[4] = tested on: Leigh (GM03672) fibroblasts; experiment: Erastin cytoprotection assay, Leigh fibroblasts; format: cell-based, human; settings: 24 hours; for protective effect compared among test articles: 2 μM erastin, FIG. 13
Protocol: (§8) Briefly, Healthy (GM08402) or Leigh (GM03672) fibroblasts were resuspended in assay medium, seeded at 10,000 cells per well in a clear, tissue cultured-treated, 96-well plate, and incubated at 37° C. overnight. Following the incubation, supernatant was manually aspirated from wells, taking care not to disrupt cells. Fibroblasts were co-treated in a final volume of 100 μL with 2 μM erastin (Millipore Corp., Cat #), 250 μM ferric ammonium citrate (FAC), 50 µM ascorbic acid (AA), and a titration of one of each of Compounds 1 to 4 or Vatiquinone ranging from 10 to 1000 nM. Following another 24-hour incubation at 37° C., cell viability was measured using the CellTiter-Glo Luminescent Cell Viability Kit (ProMega) per Manufacturer's instructions. Luminescence units were quantified by GEN5 software on a BioTek SYNERGY neo2 plate reader (LUM filter).
(§9) Briefly, erastin, like RSL3, is known to induce ferroptosis. […] Erastin was incubated with cell fibroblasts for 24 hours to induce ferroptosis. Cells were co-treated with each of Compounds 1 to 4, or Vatiquinone as the test articles. Test articles were administered at a range of concentrations to derive a curve. Cell viability was determined using a commercially available kit that measures ATP production. […] An increase in cell viability as determined by the assay is considered to be protective against ferroptosis.

[5] = tested on: Leigh syndrome (GM03672) fibroblasts; experiment: RSL3 cytoprotection assay, Leigh fibroblasts; format: cell-based, human; settings: for anti-ferroptosis properties compared among test articles: RSL3, 4 hours
Protocol: as §1, §2, §3, §4, §5

[6] = tested on: Healthy (GM08402) fibroblasts; experiment: Erastin cytoprotection assay, healthy fibroblasts; format: cell-based, human; settings: 24 hours; for protective effect compared among test articles: 2 μM erastin, FIG. 12
Protocol: as §8, §9

[7] = Pharmacokinetics of Compound 2 after single intravenous, subcutaneous or oral administration; format: in vivo; settings: rat, 1 mg/kg IV, 10 mg/kg SC, 10 mg/kg PO
Protocol: • Animals: Rat/Sprague Dawley/Male/Naive 225-250 grams were received from an approved vendor. • Animals were fasted overnight prior to dose administration. Food was returned following the 2 hour sample collection. • Body weights were recorded prior to dose administration. The volume of each dose delivered (ml/kg) was based on each individual animal's body weight. • This was a single dose, serial blood collection study with tissues collected for possible future analysis. • Doses were administered in accordance with test facility standard operating procedures. […].
b) Sample collection—Post Dosing: • Blood samples were collected via jugular vein catheter (JVC) and transferred to tubes with appropriate anticoagulant. The tubes were stored on wet ice until processed to plasma by centrifugation (3500 rpm at 5° C. for 10 minutes) within 20 minutes of collection. Sample aliquots of 100 μL were transferred into individual uniquely labeled matrix tubes containing 10 μL of 5% (v/v) formic acid aqueous solution and stored at nominal −80° C. until analyzed by LC/MS/MS. • Immediately following final serial blood collection (24 hours, JVC), animals were sacrificed and perfused with cold PBS. […]

[8] = tested on: 15-lipoxygenase (15-LO); experiment: 15(S)-HETE ELISA following RSL3 treatment, healthy fibroblasts; format: cell-based, human; settings: 700 nM RSL3, 1 μM compound, FIG. 10
Protocol: as §6, §7

[9] = tested on: 15-lipoxygenase (15-LO); experiment: 15(S)-HETE ELISA following erastin treatment, Leigh fibroblasts; format: cell-based, human; settings: erastin + FAC + AA, FIG. 15
Protocol: (§10) Samples for the 15(S)-HETE ELISA were generated by the Erastin Assay described above. Healthy or Leigh fibroblasts were resuspended in assay medium, seeded at 200,000 cells/well in a clear, tissue culture-treated, 24-well plate, and incubated at 37° C. for 24 hours. Supernatant was aspirated from each well.
(§11) Ferroptosis was induced using erastin at 2 μM concentration. 15(S)-HETE, which is a metabolite of arachidonic acid and generated by activity of 15-LO, was measured using a commercially available ELISA kit. Data were normalized to the “No treatment” group, which represented fibroblasts that were not injured with erastin.

[10] = tested on: 15-lipoxygenase (15-LO); experiment: 15(S)-HETE ELISA following erastin treatment, healthy fibroblasts; format: cell-based, human; settings: erastin + FAC + AA, FIG. 14
Protocol: as §10, §11

[11] = tested in the clinic; cited from earlier work
[12] = pontocerebellar hypoplasia type 6, Kahn-Kirby et al.; cited from earlier work
[13] = 2 μM erastin + FAC + AA, compound 10-1000 nM

COC1=C(OC)C(=O)C(CCCCCCCCCC(F)(F)F)=C(C)C1=O [Compound 1]
oxygen consumption rate after rotenone inhibition ([1]; titrated into rotenone-inhibited Leigh fibroblasts, n=6): restored oxygen consumption rate in a dose-dependent manner
anti-ferroptosis properties compared among test articles ([2]; 1 μM RSL3, 4 hours, FIG. 8): roughly equivalent
15-LO inhibition compared among test articles [3]: superior to Compounds 2, 3 and 4
protective effect compared among test articles [4]: about equally protective
anti-ferroptosis properties compared among test articles ([5]; FIG. 9): roughly equivalent
protective effect compared among test articles [6]: about equally protective

CC1=C(C)C(=O)C(CC[C@@](C)(O)CC/C=C(\C)CCC=C(F)F)=C(C)C1=O [Compound 2]
tolerability [7]: well tolerated
delivery by mode of administration ([7]; preliminary): effectively administered
anti-ferroptosis properties compared among test articles ([2]; 1 μM RSL3, 4 hours, FIG. 8): superior to Compounds 1, 4 and Vatiquinone
inhibition of 15-lipoxygenase (15(S)-HETE in supernatant) ([8]; 24 hours): inhibited 15-lipoxygenase
15-lipoxygenase inhibition compared among test articles [8]: roughly equivalent protective effect
15-LO inhibition compared among test articles [9]: slightly less effective
15-LO inhibition compared among test articles [3]: roughly equivalent protective effect
protective effect compared among test articles [4]: superior in their protective effect
15-LO inhibition compared among test articles [10]: slightly less effective
anti-ferroptosis properties compared among test articles ([5]; FIG. 9): superior to Compounds 1, 4 and Vatiquinone
protective effect compared among test articles [6]: superior in their protective effect

COC(=O)c1ccc([C@H]2c3[nH]c4ccccc4c3C[C@H](C(=O)OC)N2C(=O)CCl)cc1 [RSL3, (1S,3R)-Methyl 2-(2-chloroacetyl)-2,3,4,9-tetrahydro-1-[4-(methoxycarbonyl)phenyl]-1H-pyrido[3,4-b]indole-3-carboxylate, reference compound]
concentration sufficient for 25-30% killing of cells ([2]; healthy fibroblasts, FIG. 7): 1 µM
concentration sufficient for 25-30% killing of cells ([5]; Leigh fibroblasts, FIG. 7): 700 nM

CC(C)=CCC/C(C)=C/CC/C(C)=C/CC[C@@](C)(O)CCC1=C(C)C(=O)C(C)=C(C)C1=O [Vatiquinone, reference compound]
Complex I by-pass activity ([1]; concentrations from 125 nM to 8 μM): inactive
anti-ferroptosis properties compared among test articles ([2]; 1 μM RSL3, 4 hours, FIG. 8): roughly equivalent
protective effect against RSL3 induced ferroptosis (cell viability, ATP) ([2]; 1 μM RSL3, 4 hours, compound 10-1000 nM, FIG. 8): protective effect
clinical results in Leigh syndrome [11]: disappointing
protective effect against erastin induced ferroptosis (cell viability, ATP) [4, 13]: protective effect
protective effect compared among test articles [4]: superior in its protective effect as compared with Compounds 1 and 4
protective effect against RSL3 induced ferroptosis (cell viability, ATP) ([5]; 375 nM RSL3, 4 hours, compound 10-1000 nM, FIG. 9): protective effect
anti-ferroptosis properties compared among test articles ([5]; FIG. 9): roughly equivalent
protective effect against erastin induced ferroptosis (cell viability, ATP) [6, 13]: protective effect
protective effect compared among test articles [6]: about equally protective
seizure frequency and morbidity [12]: decrease seizure frequency and morbidity
